Values of other authors in patent US7517693B2, “Method and apparatus for determining a molecular descriptor of absorption for a candidate compound” (North Carolina State University, priority 2002, dated 2009).

Key:
[1] = Table IV study compounds
[2] = Table III calibration compounds, known literature descriptor; for logL^16 (solute gas-hexadecane partition coefficient): 25° C.

Compound | logKo/w [1] | further results
COC(=O)c1cccnc1 [methyl nicotinate] | 0.64 | 
CCOP(=S)(OCC)Oc1ccc([N+](=O)[O-])cc1 [Parathion] | 3.83 | 
CCC[N+](=O)[O-] [1-nitropropane] | 0.87 | 
O=[N+]([O-])c1ccc(O)cc1 [4-Nitrophenol] | 1.91 | logL^16 (solute gas-hexadecane partition coefficient) [2]: 5.876; α (effective solute H-bond acidity) [2]: 0.82; β (effective solute H-bond basicity) [2]: 0.26; π (effective solute dipolarity and polarizability) [2]: 1.72
CCCCCCCCCCCCN1CCCCCC1=O [Laurocapram] | 6.28 | 
Nc1ccc(C(=O)O)cc1 [4-aminobenzoic acid] | 0.83 | 
C1COCCO1 [1,4-dioxane] | −0.27 | 
O=S1OCC2C(CO1)C1(Cl)C(Cl)=C(Cl)C2(Cl)C1(Cl)Cl (stereo not shown) [endosulfan II] | 3.83 | 
CC12CCC(CC1)C(C)(C)O2 [1,8-cineole] | 2.74 | 
c1ccc2cc3ccccc3cc2c1 [Anthracene] | 4.45 | 
CCNc1nc(Cl)nc(NC(C)C)n1 [Atrazine] | 2.61 | 
Cc1cccc(C)c1 [m-xylene] | 3.20 | 
COc1ccc(C(c2ccc(OC)cc2)C(Cl)(Cl)Cl)cc1 [Methoxychlor] | 5.08 | 
COC(=O)c1ccccc1O [methyl salicylate] | 2.55 | 
Cl[C@H]1[C@H](Cl)[C@@H](Cl)[C@@H](Cl)[C@H](Cl)[C@H]1Cl [Lindane] | 3.72 | 
Cc1cccc(O)c1 [m-cresol] | 1.95 | 
Nonylphenol | 5.99 | 
c1ncncn1 [1,3,5-triazine] | −1.17 | 

Compound | logKo/w [1] | further results
O=C(O)c1ccccc1O [salicylic acid] | 2.26 | 
CCN(CC)CC [Triethylamine] |  | logL^16 (solute gas-hexadecane partition coefficient) [2]: 3.040; α (effective solute H-bond acidity) [2]: 0.00; β (effective solute H-bond basicity) [2]: 0.79; π (effective solute dipolarity and polarizability) [2]: 0.15
CCF [Fluoroethane] |  | logL^16 (solute gas-hexadecane partition coefficient) [2]: 0.559; α (effective solute H-bond acidity) [2]: 0.00; β (effective solute H-bond basicity) [2]: 0.10; π (effective solute dipolarity and polarizability) [2]: 0.35
COC(=O)c1c(Cl)c(Cl)c(C(=O)OC)c(Cl)c1Cl [Dacthal] | 4.28 | 
CC(=O)CC(C)C [4-methyl-2-pentanone] | 1.31 | 
ClC1=C(Cl)C2(Cl)C3C4OC4C(Cl)C3C1(Cl)C2(Cl)Cl (stereo not shown) [heptachlor epoxide] | 4.98 | 
Nc1ccccc1 [Aniline] | 0.90 | 
N#Cc1ccc(O)cc1 [4-Cyanophenol] |  | α (effective solute H-bond acidity) [2]: 0.79; β (effective solute H-bond basicity) [2]: 0.29; π (effective solute dipolarity and polarizability) [2]: 1.63
Oc1ccc2ccccc2c1 [Compound 2-Naphthol, 2-Naphthol] |  | α (effective solute H-bond acidity) [2]: 0.61; β (effective solute H-bond basicity) [2]: 0.40; π (effective solute dipolarity and polarizability) [2]: 1.08
C1CCNCC1 [Piperidine] |  | logL^16 (solute gas-hexadecane partition coefficient) [2]: 3.304; α (effective solute H-bond acidity) [2]: 0.10; β (effective solute H-bond basicity) [2]: 0.69; π (effective solute dipolarity and polarizability) [2]: 0.46
CCOC(=O)C(O)(c1ccc(Cl)cc1)c1ccc(Cl)cc1 [Chlorobenzilate] | 4.74 | 
OCc1ccccc1 [Benzyl alcohol] |  | logL^16 (solute gas-hexadecane partition coefficient) [2]: 4.221; α (effective solute H-bond acidity) [2]: 0.33; β (effective solute H-bond basicity) [2]: 0.56; π (effective solute dipolarity and polarizability) [2]: 0.87
CCCC(C)=O [Compound 2-pentanone, 2-pentanone] | 0.91 | 
CNC(=O)Oc1cccc2ccccc12 [Carbaryl] | 2.36 | 
CCCCI [Compound 1-iodobutane, 1-iodobutane] | 3.08 | 
COc1cc(Cl)c(OC)cc1Cl [Chloroneb] | 3.44 | 
Oc1cccc(O)c1 [Resorcinol] | 0.8 | 
